Results from patent US9518038B2, “Condensation product of theanine derivative and carboxylic acid coumarin derivative, its intermediate, preparation method and use thereof” (SHANDONG YINGDONG YINGHAO BIOTECHNOLOGY, INC., priority 2012, dated 2016).
Like-named read-outs stand apart in the source and are kept apart here.

What was measured:
[1] = tested on: human breast cancer cells MDA-MB-231; experiment: MTT growth inhibition, MDA-MB-231 cells; type: cell-based; details: 72 h after treatment, read-out: Drug concentration (IC50) at which 50% cancer cells survived
Description: (§1) Cell lines and cell culture: human lung cancer cells A549 and H460, human breast cancer cells MCF-7 and MDA-MB-231, human gastric cancer cells BGC-823, human prostate cancer cells PC-3, human chronic leukemia cells K562, human lymphoma cells U937, human liver cancer cells SMMC7721 and HepG2, human colon cancer cells HT29, human pancreatic cancer cells PANC-1 and BxPC3, human cervical cancer Hela cell lines, human brain tumor cells Daoy, human neuroma cells D54 and human oral epidermoid cancer cells KBV200 line with strong drug resistance, mouse melanoma cells B16, and highly metastatic Lewis lung cancer cell lines were purchased from American Type Culture Collection of the U.S. These cells were cultured with DMEM and RPMI-1640 culture solutions separately.
(§2) The procedure was as follows:
(§3) (1) 0.25% trypsin was used to digest cancer cells in a logarithmic growth phase to prepare a single-cell suspension, the concentration of cells was adjusted to 5×10^4/mL, and the adjusted suspension was inoculated into a 96-well culture plate with 100 μl per well;
(§4) (2) The culture plate was transferred into a 37° C. incubator with a saturated humidity and 5% of CO2 and cultured for 24 h; the compounds and the intermediates thereof obtained in embodiments 1-7 and the compound as represented by formula (IIIa) or the positive control anti-cancer drug with the concentration of 1-1000 μM/L were added to enable the final concentration to be 0.1-1500 μM/L. Control wells (only added with 200 μl of cell suspension) and drug-free blank control wells (containing the solvent of 0.01% DMSO) were set, each group included 8 wells, and the plate was placed into the 37° C. incubator with saturated humidity and 5% of CO2 for culturing;
(§5) (3) The 96-well plate was taken out at 48 h and 72 h after dosing, the original culture medium was carefully removed by suction, 100 μl of serum-free DMEM culture medium and 10 μl of MTT (5 mg/mL) solution were added in each well. The plate was continuously cultured for another 4 h and then the culture was terminated;
(§6) (4) The supernatant in the wells was carefully removed by suction, each well was added with 150 μl of DMSO and shaked at room temperature for 10-15 min to fully dissolve crystals.
(§7) (5) Colorimetric analysis: the wavelength was selected as 570 nm, the light absorbance (A value) of each well was determined on the microplate reader and the results were recorded; the experiment was repeated for three times;
(§8) (6) the experimental results were calculated according to the following formula: relative survival rate=(A value of each experimental group/A value of cell control group)×100%
(§9) Calculation of median-effect concentration (IC50, namely the drug concentration at which the inhibition rate is 50%, also known as half inhibitory concentration):
(§10) IC50 of the detected component was calculated by using a regression equation.

[2] = tested on: human brain tumor cells Daoy; experiment: MTT growth inhibition, Daoy cells; type: cell-based; details: Homo sapiens, 72 h after treatment, read-out: Drug concentration (IC50) at which 50% cancer cells survived
Description: as §1, §2, §3, §4, §5, §6, §7, §8, §9, §10

[3] = tested on: human cervical cancer Hela cell lines; experiment: MTT growth inhibition, Hela cells; type: cell-based; details: Homo sapiens, 72 h after treatment, read-out: Drug concentration (IC50) at which 50% cancer cells survived
Description: as §1, §2, §3, §4, §5, §6, §7, §8, §9, §10

[4] = tested on: human lung cancer cells A549 xenograft; experiment: In-vivo growth of A549 xenografts in nude mice; parameters: species or system BALB/c nude mice; details: Mus musculus, ip, vs DMSO solvent control, read-out: Curative effect (inhibition rate %) of tumor weight; for inhibition in vivo at 60 mg/kg: 60 mg/kg intraperitoneal once a day; for inhibition in vivo at 90 mg/kg: 90 mg/kg intraperitoneal once a day
Description: RPMI1640 and DMEM culture solutions: Hyclone Company; inactivated fetal bovine serum: Hyclone Company, preserved at −20° C.; trypsin: Amersco Company; and 0.4% trypan blue: Sigma Company;
(3) Observation of growth of tumors in nude mice: the activities (including food intake, traits of urine and stool, mental state and the like) of the nude mice and the tumor growth time and growth situation of the transplanted tumors were observed every day, the body weight and the size of the tumors were measured once every 2-3 days. The long diameter a and the short diameter b (mm) of each tumor were measured by a vernier caliper to calculate the volume, wherein the volume V=π1/2·ab^2 (mm^3);
(4) sacrifice of animals: the mice were anesthetized and photoed after treatment experiments; the nude mice were sacrificed by breaking neck, the tumor tissues were stripped under sterile conditions and the weight of the tumors was weighed; and the effects of the drugs on pathology and toxicity of the various organs and tissues were detected.

[5] = tested on: nucleoprotein factor NF-κB (p65)-DNA binding activity; experiment: NF-κB (p65)-DNA binding activity (EMSA); type: cell-based
Description: The in-vitro experiment of the inhibitory effect against the NF-κB(p65)-DNA binding activity was applied with the chemiluminescent EMSA kit of Pierce Biotechnology Company of the U.S., the experimental method was strictly operated according to the description of the kit and the specific procedure were as follows:
(1) Preparation of EMSA gel
The cells treated by the drugs were extracted by the nucleoprotein extract solution (provided by Beyotime Biotechnology of Institute) to obtain the nucleoprotein extracts, and 10 μg/pipe of the nucleoprotein extracts were respectively used for sample reaction and electrophoresis detection and analysis shown in the following table.
(2) Pre-electrophoresis: the gel was fixed in an electrophoresis tank, which was filled with a 0.5×TBE electrophoresis buffer solution, and electrophoresed under 10V/cm for 90 min. The probe binding reaction was as follows:
The components were added in sequence into the EP pipe according to the above table, uniformly mixed and stood at room temperature for 15 min to eliminate possible non-specific binding of probe and protein. 1 μl of biotin-labeled probe NF-κB was respectively added and stood at room temperature for 20 min.
(4) Film transfer: the process of transferring the nucleoprotein factors and the binding probe on the EMSA gel to the nylon film was electrically transferred under 380 mA in ice bath for 40 min.
(5) Ultraviolet cross-linking: the nylon film was placed under a 254 nm ultraviolet lamp and irradiated for 15 min.
(6) Detection of the biotin-labeled probe by chemiluminescence: the cross-linked nylon film was blocked with the blocking solution, a treated film was subjected to X-ray exposure, developing, and fixation according to the requirements of the kit, and the results were analyzed.

[6] = tested on: human breast cancer cells MCF-7; experiment: MTT growth inhibition, MCF-7 cells; type: cell-based; details: MCF7, 72 h after treatment, read-out: Drug concentration (IC50) at which 50% cancer cells survived
Description: as §1, §2, §3, §4, §5, §6, §7, §8, §9, §10

[7] = A549 cells, EMSA, nuclear protein extracts, 48 h, read-out: Effective concentration for 50% inhibition of binding of nucleoprotein factor NF-kB (p65) and DNA
[8] = MCF7 cells, EMSA, nuclear protein extracts, 48 h, read-out: Effective concentration for 50% inhibition of binding of nucleoprotein factor NF-kB (p65) and DNA
[9] = MDA-MB231 cells, EMSA, nuclear protein extracts, 48 h, read-out: Effective concentration for 50% inhibition of binding of nucleoprotein factor NF-kB (p65) and DNA
[10] = SMMC7721 cells, EMSA, nuclear protein extracts, 48 h, read-out: Effective concentration for 50% inhibition of binding of nucleoprotein factor NF-kB (p65) and DNA
[11] = human liver cancer cells, Lewis lung cancer cells and other cancer cell lines and tumor tissues, read-out: Effective concentration (IC50) for inhibition of NF-κB-DNA binding activity
[12] = Hela cells, EMSA, nuclear protein extracts, 48 h, read-out: Effective concentration for 50% inhibition of binding of nucleoprotein factor NF-kB (p65) and DNA
[13] = PANC-1 cells, EMSA, nuclear protein extracts, 48 h, read-out: Effective concentration for 50% inhibition of binding of nucleoprotein factor NF-kB (p65) and DNA

Row | Compound | IC50 [1] | IC50 [2] | IC50 [3] | inhibition in vivo at 60 mg/kg [4] | inhibition in vivo at 90 mg/kg [4] | IC50 [5, 7] | IC50 [5, 8] | IC50 [5, 9] | IC50 [5, 10] | IC50 [5, 11] | IC50 [6] | IC50 [5, 12] | IC50 [5, 13] | IC50 ([5]; Lewis lung cancer cells, EMSA, nuclear protein extracts, 48 h, read-out: Effective concentration for 50% inhibition of binding of nucleoprotein factor NF-kB (p65) and DNA)
1 | CCNC(=O)CC[C@@H](NC(=O)c1cc2cc(Br)ccc2oc1=O)C(=O)OCC [Compound Id, (R)-2-(6-Br-2-oxo-2H-benzopyran-3-carboxamido)-5-ethylamino-5-oxo-pentanoic acid ethyl ester] | 91 µM | 128 µM | 75 µM | 63.6% | 69.6% | < 110 µM | < 100 µM | < 100 µM | < 80 µM | < 120 µM | 102 µM |  |  | 
2 | CCNC(=O)CC[C@H](N)C(=O)OC [Compound IIa, theanine methyl ester] | 480 µM | 400 µM | 330 µM | 29.6% | 31.7% |  |  |  |  |  | 450 µM |  |  | 
3 | CCNC(=O)CC[C@@H](NC(=O)c1cc2cc(Cl)ccc2oc1=O)C(=O)OCC [Compound Ic, (R)-2-(6-CI-2-oxo-2H-benzopyran-3-carboxamido)-5-ethylamino-5-oxo-pentanoic acid ethyl ester] | 87 µM | 86 µM | 350 µM | 61.6% | 67.6% | < 125 µM | < 125 µM | < 125 µM | < 125 µM | < 125 µM | 95 µM |  |  | 
4 | CCNC(=O)CC[C@@H](NC(=O)c1cc2cc(Cl)cc(Cl)c2oc1=O)C(=O)OCC [Compound Ig, (R)-2-(6,8-dichloro-2-oxo-2H-benzopyran-3-carboxamido)-5-ethylamino-5-oxo-pentanoic ethyl ester] | 92 µM | 110 µM | 66 µM | 56.6% | 66.6% | < 70 µM | < 70 µM | < 70 µM | < 70 µM | < 125 µM | 75 µM | < 70 µM | < 70 µM | 
5 | CCNC(=O)CCC(NC(=O)c1cc2cc([N+](=O)[O-])ccc2oc1=O)C(=O)OCC (stereo in doubt) [Compound If, (R)-2-(6-nitro-2-oxo-2H-benzopyran-3-carboxamido)-5-ethylamino-5-oxo-pentanoic acid ethyl ester] | 110 µM | 129 µM | 71 µM | 58.6% | 64.6% | < 100 µM | < 100 µM | < 100 µM | < 100 µM | < 100 µM | 112 µM |  |  | 
6 | CCNC(=O)CCC(NC(=O)c1cc2ccccc2oc1=O)C(=O)OCC (stereo not shown) [Compound Ib, ethyl 5-ethylamino-5-oxo-2-(2-oxo-2H-benzopyran-3-carboxamido)pentanoate] | 109 µM | 135 µM | 53 µM | 53.6% | 60.6% | < 135 µM |  |  | < 120 µM | < 130 µM | 103 µM |  |  | 
7 | CCNC(=O)CCC(NC(=O)c1cc2cc(F)ccc2oc1=O)C(=O)OCC (stereo in doubt) [Compound Ie, (R)-2-(6-F-2-oxo-2H-benzopyran-3-carboxamido)-5-ethylamino-5-oxo-pentanoic acid ethyl ester] | 90 µM | 210 µM | 71 µM | 55.5% | 61.5% | < 120 µM | < 100 µM | < 110 µM | < 121 µM | < 100 µM | 115 µM |  |  | 
8 | CCNC(=O)CC[C@H](N)C(=O)OCC [Compound IIb, theanine ethyl ester] | 400 µM | 400 µM | 500 µM | 33.3% | 38.6% |  |  |  |  |  | 300 µM |  |  | 
9 | CCNC(=O)CC[C@@H](NC(=O)c1cc2cc(Br)cc(Br)c2oc1=O)C(=O)OCC [Compound Ih, (R)-2-(6,8-dibromo-2-oxo-2H-benzopyran-3-carboxamido)-5-ethylamino-5-oxo-pentanoic ethyl ester] | 98 µM | 121 µM | 58 µM | 53.8% | 63.8% | < 70 µM | < 70 µM | < 70 µM | < 70 µM | < 125 µM | 91 µM | < 70 µM | < 70 µM | 
10 | CCNC(=O)CCC(NC(=O)c1cc2ccccc2oc1=O)C(=O)OC (stereo not shown) [Compound Ia, methyl 5-ethylamino-5-oxo-2-(2-oxo-2H-benzopyran-3-carboxamido)pentanoate] | 240 µM | 250 µM | 64 ± 20 µM | 48.6% | 51.6% |  |  |  | < 125 µM | < 135 µM | 220 µM |  |  | < 135 µM
